ChEMBL document CHEMBL4813910, “Curse or Cure? A Perspective on the Developability of Aldehydes as Active Pharmaceutical Ingredients” (J Med Chem, 2020)

Key:
[1] = Tmax in human at 20 mg/kg, po measured up to 30 hrs by HPLC method; type: ADME, organism-based; details: in vivo
[2] = Clearance in human at 40 mg, po BID cotreated with paclitaxel by HPLC method; type: ADME, organism-based; details: in vivo
[3] = AUC (0 to infinity) in human at 20 mg/kg, po measured up to 30 hrs by HPLC method; type: ADME, organism-based; set-up: route oral, dose 20 mg/kg, time <=30; details: in vivo
[4] = Cmax in human at 20 mg/kg, po measured up to 30 hrs by HPLC method; type: ADME, organism-based; set-up: route oral, dose 20 mg/kg, time <=30; details: in vivo
[5] = Half life in mouse plasma at 5 ug/ml incubated for 1 to 24 hrs by LC/MS/MS method; type: ADME, cell-free; details: time 1-24 hrs, dose 5 µg/ml
[6] = Half life in human plasma at 5 ug/ml incubated for 1 to 24 hrs by LC/MS/MS method; type: ADME, cell-free; details: time 1-24 hrs, dose 5 µg/ml
[7] = Half life in human at 20 mg/kg, po measured up to 30 hrs by HPLC method; type: ADME, organism-based; details: in vivo
[8] = AUC (0 to 10 hrs) in human at 40 mg, po BID cotreated with paclitaxel by HPLC method; type: ADME, organism-based; set-up: time < 10 hr, route oral, dose 40 mg; details: in vivo
[9] = Protein binding in human plasma; type: ADME, cell-free
[10] = Tmax in human at 20 mg, po measured up to 240 hrs by HPLC method; type: ADME, organism-based; details: in vivo
[11] = AUC (0 to infinity) in human at 20 mg, po measured up to 240 hrs by HPLC method; type: ADME, organism-based; set-up: route oral, dose 20 mg, time <=240; details: in vivo
[12] = Half life in human at 20 mg/kg, po measured up to 240 hrs by HPLC method; type: ADME, organism-based; details: in vivo
[13] = Half life in dog plasma at 5 ug/ml incubated for 1 to 24 hrs by LC/MS/MS method; type: ADME, cell-free, Canis lupus familiaris; details: time 1-24 hrs, dose 5 µg/ml
[14] = Cmax in human at 40 mg, po BID cotreated with paclitaxel by HPLC method; type: ADME, organism-based; set-up: route oral, dose 40 mg; details: in vivo
[15] = Clearance in dog at 0.5 mg/kg, iv by HPLC method; type: ADME, organism-based, Canis lupus familiaris; details: in vivo
[16] = Half life in human at 40 mg, po BID cotreated with paclitaxel by HPLC method; type: ADME, organism-based; details: in vivo
[17] = Cmax in human at 20 mg, po measured up to 240 hrs by HPLC method; type: ADME, organism-based; set-up: route oral, dose 20 mg, time <=240; details: in vivo
[18] = Cmax in human at 3.36 mg, po measured for 7 days; type: ADME, organism-based; set-up: route oral, time 7 day, dose 3.36 mg; details: in vivo
[19] = Drug excretion in human urine at 3.36 mg, po measured within 24 hrs; type: ADME, organism-based; details: in vivo
[20] = Tmax in human at 3.36 mg, po; type: ADME; details: in vivo
[21] = Drug metabolism in human assessed as pyridoxal-5-phosphate Tmax at 3.36 mg, po; type: ADME; details: in vivo
[22] = Drug excretion in human urine assessed as maximum urinary excretion of pyridoxic-acid at 3.36 mg, po; type: ADME, tissue-based; details: in vivo
[23] = Drug excretion in human assessed as time of maximum urinary excretion of pyridoxic-acid at 3.36 mg, po; type: ADME; details: in vivo
[24] = Drug metabolism in human assessed as pyridoxal-5-phosphate Cmax at 3.36 mg, po; type: ADME; set-up: route oral, dose 3.36 mg; details: in vivo
[25] = Drug excretion in human urine at 4 mg, po measured within 24 hrs; type: ADME, organism-based; details: in vivo
[26] = Drug excretion in human urine assessed as time of maximum urinary excretion of pyridoxic-acid at 4 mg, po; type: ADME, tissue-based; details: in vivo
[27] = Drug excretion in human urine assessed as maximum urinary excretion of pyridoxic-acid at 4 mg, po; type: ADME; details: in vivo, 24 h
[28] = Tmax in human at 4 mg, po; type: ADME; details: in vivo
[29] = Drug metabolism in human assessed as pyridoxal-5-phosphate Cmax at 4 mg, po; type: ADME; set-up: route oral, dose 4 mg; details: in vivo
[30] = Cmax in human at 4 mg, po; type: ADME; set-up: route oral, dose 4 mg; details: in vivo
[31] = Drug metabolism in human assessed as pyridoxal-5-phosphate Tmax at 4 mg, po; type: ADME; details: in vivo
[32] = Cmax in human at 20 mg/kg, IM; type: ADME, organism-based; set-up: route […], dose 20 mg/kg; details: in vivo
[33] = Drug excretion in human at 20 mg/kg, IM measured for 24 hrs; type: ADME, organism-based; details: in vivo, read-out: Drug excretion
[34] = Bioavailability in human at 20 mpk, IM; type: ADME, organism-based; details: in vivo, dose 20 mg/kg
[35] = Tmax in human at 20 mg/kg, IM; type: ADME, organism-based; details: in vivo
[36] = Protein binding in human plasma at 20 mg/kg, IM; type: ADME, organism-based; details: read-out: PPB (converted)
[37] = Half life in human at 20 mg/kg, IM; type: ADME, organism-based; details: in vivo
[38] = Volume of distribution at steady state in human at 20 mg/kg, IM; type: ADME, organism-based; details: in vivo
[39] = Renal clearance in human at 20 mg/kg, IM; type: ADME, organism-based; details: in vivo

Compound `Cc1cc2c(C(C)C)c(O)c(O)c(C=O)c2c(O)c1-c1c(C)cc2c(C(C)C)c(O)c(O)c(C=O)c2c1O` [GOSSYPOL] has a Tmax [1] of 4.6 h, a CL/F [2] of 2.5 mL/min/kg and an AUC(0-inf) [3] of 6.08 µM·h. The Cmax [4] was 799 nM, the half-life at 5 ug/ml [5] was < 60 min and the half-life at 5 ug/ml [6] was < 60 min. The half-life [7] was 273 min, the AUC at 10 h [8] was 6.81 µM·h and the PPB [9] was 63%. For the same compound, the fraction unbound ([9]; read-out: PPB (converted)) was 0.61, the Tmax [10] was 4.6 h and the AUC(0-inf) [11] was 29.2 µM·h. The half-life [12] was 5.54 days, the half-life at 5 ug/ml [13] was < 60 min and the Cmax [14] was 1270 nM. For the same compound, the clearance [15] was 0.833 mL/min/kg, the CL ([15]; 0.5 mg/kg) was 0.05 L/h/kg and the half-life [16] was 200 min. It also gave a Cmax [17] of 1750 nM.
`Cc1ncc(CO)c(C=O)c1O` [PYRIDOXAL] showed a Cmax [18] of 280 nM, a Drug excretion [19] of 1.2 µmol and a Tmax [20] of 30 min. For the same compound, the Tmax [21] was 1 h, the Drug excretion [22] was 1.6 µmol/h and the Time [23] was 1 h. It also gave a Cmax [24] of 18 nM.
In the case of `Cc1ncc(CO)c(CO)c1O` [PYRIDOXINE], the Drug excretion [25] was 1.5 µmol, the Time [26] was 3 h and the Drug excretion [27] was 0.7 µmol/h. For the same compound, the Tmax [28] was 1 h, the Cmax [29] was 30 nM and the Cmax [30] was 60 nM. For the same compound, the Tmax [31] was 3 h.
Compound `[H]/N=C(/N)N[C@H]1[C@H](O)[C@@H](O)[C@H](O[C@@H]2O[C@@H](C)[C@](O)(C=O)[C@H]2O[C@@H]2O[C@@H](CO)[C@H](O)[C@@H](O)[C@@H]2NC)[C@@H](N/C(N)=N\[H])[C@@H]1O` [STREPTOMYCIN] has a Cmax [32] of 43 µM, a dose excreted at 24 h [33] of 39% and a bioavailability [34] of 80%. For the same compound, the Tmax [35] was 30 min, the fraction unbound [36] was 0.52 and the half-life [37] was 318 min. It also gave a Vdss [38] of 1.77 L/kg and a CL renal [39] of 30 mL/min.
